According to publication PMC3914206:

What was measured:
Experiment in all cases: KiNativ chemical proteomics profiling in HeLa and PC3 cell lysates
[1] = molecular target: T1, selected panels of kinases in HeLa and PC3 cell lysates (Homo sapiens, UniProt P24941); format: binding; conditions: 10 uM, peptide DLk[…], labeling site Lys2
T1 construct: endogenous in cells; host or cells: HeLa and PC3 cell lysates

[2] = molecular target: T2, selected panels of kinases in HeLa and PC3 cell lysates (Homo sapiens, UniProt P54760); format: binding; conditions: 10 uM; proteome PC3; peptide […]kIPIR; labeling site Activation Loop
T2 construct: endogenous in cells; host or cells: HeLa and PC3 cell lysates

[3] = molecular target: T3, selected panels of kinases in HeLa and PC3 cell lysates (Homo sapiens, UniProt Q96S44); format: binding; conditions: 10 uM, PRPK, peptide FLSGLELVkQGAEAR, labeling site ATP Loop
T3 construct: endogenous in cells; host or cells: HeLa and PC3 cell lysates
T3 sequence (Q96S44 1-253): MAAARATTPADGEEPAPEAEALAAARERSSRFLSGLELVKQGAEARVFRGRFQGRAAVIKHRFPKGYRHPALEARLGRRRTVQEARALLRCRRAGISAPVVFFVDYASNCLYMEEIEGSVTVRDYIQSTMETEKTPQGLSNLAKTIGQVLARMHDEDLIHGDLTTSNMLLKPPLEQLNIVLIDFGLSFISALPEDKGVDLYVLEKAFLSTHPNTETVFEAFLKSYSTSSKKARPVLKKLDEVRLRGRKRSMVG

[4] = molecular target: T4, selected panels of kinases in HeLa and PC3 cell lysates (Homo sapiens, UniProt O75460); format: binding; conditions: 10 uM; proteome HEL; peptide DLk[…]; labeling site Lys2
T4 construct: endogenous in cells; host or cells: HeLa and PC3 cell lysates

[5] = molecular target: T5, selected panels of kinases in HeLa and PC3 cell lysates (Homo sapiens, UniProt Q53H12); format: binding; conditions: 10 uM; proteome PC3; peptide […]kGK; labeling site ATP
T5 construct: endogenous in cells; host or cells: HeLa and PC3 cell lysates

[6] = molecular target: T6, selected panels of kinases in HeLa and PC3 cell lysates (Homo sapiens, UniProt Q96S38); format: binding; conditions: 10 uM; RSKL1 domain1; peptide VLGVIDkVLLVMDTR; proteome HEL; labeling site Protein Kinase Domain
T6 construct: endogenous in cells; host or cells: HeLa and PC3 cell lysates

[7] = molecular target: T7, selected panels of kinases in HeLa and PC3 cell lysates (Homo sapiens, UniProt P30291); format: binding; conditions: 10 uM; Wee1; peptide […]k[…]; proteome HEL; labeling site Lys2
T7 construct: endogenous in cells; host or cells: HeLa and PC3 cell lysates

[8] = molecular target: T8, selected panels of kinases in HeLa and PC3 cell lysates (Homo sapiens, UniProt O60674); format: binding; conditions: 10 uM; proteome HEL; peptide IGDFGLTk[…]; labeling site Activation Loop
T8 construct: endogenous in cells; host or cells: HeLa and PC3 cell lysates

[9] = molecular target: T9, selected panels of kinases in HeLa and PC3 cell lysates (Homo sapiens, UniProt Q96J92); format: binding; conditions: 10 uM; Wnk4; peptide DLk[…]; proteome PC3; labeling site Lys2
T9 construct: endogenous in cells; host or cells: HeLa and PC3 cell lysates

[10] = molecular target: T10, selected panels of kinases in HeLa and PC3 cell lysates (Homo sapiens, UniProt Q96GX5); format: binding; conditions: 10 uM; proteome HEL; peptide LYAVkVVK; labeling site Lys1
T10 construct: endogenous in cells; host or cells: HeLa and PC3 cell lysates

[11] = molecular target: T11, selected panels of kinases in HeLa and PC3 cell lysates (Homo sapiens, UniProt O60307); format: binding; conditions: 10 uM, peptide DLk[…], labeling site Lys2
T11 construct: endogenous in cells; host or cells: HeLa and PC3 cell lysates

[12] = molecular target: T12, selected panels of kinases in HeLa and PC3 cell lysates (Homo sapiens, UniProt P19525); format: binding; conditions: 10 uM, PKR, peptide DLk[…], labeling site Lys2
T12 construct: endogenous in cells; host or cells: HeLa and PC3 cell lysates

[13] = molecular target: T13, selected panels of kinases in HeLa and PC3 cell lysates (Homo sapiens, UniProt Q9NWZ3); format: binding; conditions: 10 uM, peptide DIk[…], labeling site Lys2
T13 construct: endogenous in cells; host or cells: HeLa and PC3 cell lysates
T13 sequence (Q9NWZ3 1-460): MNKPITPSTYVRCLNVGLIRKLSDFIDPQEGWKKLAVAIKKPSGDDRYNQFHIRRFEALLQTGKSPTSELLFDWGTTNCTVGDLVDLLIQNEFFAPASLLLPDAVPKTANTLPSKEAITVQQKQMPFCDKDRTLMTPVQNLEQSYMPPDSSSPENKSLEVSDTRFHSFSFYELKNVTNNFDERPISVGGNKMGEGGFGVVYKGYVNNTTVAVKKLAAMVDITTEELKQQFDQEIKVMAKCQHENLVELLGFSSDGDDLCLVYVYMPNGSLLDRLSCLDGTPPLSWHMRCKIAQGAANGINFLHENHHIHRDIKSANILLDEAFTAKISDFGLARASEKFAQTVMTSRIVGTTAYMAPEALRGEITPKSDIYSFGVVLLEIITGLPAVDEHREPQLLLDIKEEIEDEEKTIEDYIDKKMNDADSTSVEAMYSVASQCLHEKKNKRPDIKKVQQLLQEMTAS

[14] = tested on: selected panels of kinases in HeLa and PC3 cell lysates; format: binding, human; conditions: 10 uM; for % Inhibition PI4KA,PI4KAP2: peptide SGTPMQSAAkAPYLAK, labeling site ATP; for % Inhibiton, MAP3K2,MAP3K3: peptide DIkGANILR; for % Inhibiton, IKKe,TBK1: peptide DIkPGNIMR; for % Inhibiton, JNK1,JNK2,JNK3: peptide DLkPSNIVVK; for % Inhibiton, MAP2K1,MAP2K2: peptide DVkPSNILVNSR
[15] = peptide DIk[…], proteome HEL, labeling site Lys2
[16] = peptide DIk[…], proteome PC3, labeling site Lys2
[17] = proteome HEL, labeling site Lys2
[18] = proteome HEL, peptide DLk[…], labeling site Lys2
[19] = proteome PC3, labeling site Lys2
[20] = proteome PC3, peptide DIk[…], labeling site Lys2
[21] = proteome PC3, peptide DLk[…], labeling site Lys2

T12 sequence (P19525 whole entry): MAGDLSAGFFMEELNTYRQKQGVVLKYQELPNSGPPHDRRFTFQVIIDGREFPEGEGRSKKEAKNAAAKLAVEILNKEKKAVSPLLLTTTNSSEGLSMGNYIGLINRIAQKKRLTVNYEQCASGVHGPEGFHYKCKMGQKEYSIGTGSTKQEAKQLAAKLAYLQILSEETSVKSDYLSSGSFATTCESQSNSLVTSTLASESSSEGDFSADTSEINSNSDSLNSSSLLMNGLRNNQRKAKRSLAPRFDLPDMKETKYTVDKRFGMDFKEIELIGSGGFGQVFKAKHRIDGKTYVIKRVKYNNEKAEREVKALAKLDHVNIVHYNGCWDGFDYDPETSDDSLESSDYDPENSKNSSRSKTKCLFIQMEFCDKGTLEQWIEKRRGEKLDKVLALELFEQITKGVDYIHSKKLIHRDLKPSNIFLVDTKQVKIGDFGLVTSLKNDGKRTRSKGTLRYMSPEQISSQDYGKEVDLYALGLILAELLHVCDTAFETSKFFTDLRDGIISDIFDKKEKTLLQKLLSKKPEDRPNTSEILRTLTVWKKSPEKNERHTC
T11 sequence (O60307 whole entry): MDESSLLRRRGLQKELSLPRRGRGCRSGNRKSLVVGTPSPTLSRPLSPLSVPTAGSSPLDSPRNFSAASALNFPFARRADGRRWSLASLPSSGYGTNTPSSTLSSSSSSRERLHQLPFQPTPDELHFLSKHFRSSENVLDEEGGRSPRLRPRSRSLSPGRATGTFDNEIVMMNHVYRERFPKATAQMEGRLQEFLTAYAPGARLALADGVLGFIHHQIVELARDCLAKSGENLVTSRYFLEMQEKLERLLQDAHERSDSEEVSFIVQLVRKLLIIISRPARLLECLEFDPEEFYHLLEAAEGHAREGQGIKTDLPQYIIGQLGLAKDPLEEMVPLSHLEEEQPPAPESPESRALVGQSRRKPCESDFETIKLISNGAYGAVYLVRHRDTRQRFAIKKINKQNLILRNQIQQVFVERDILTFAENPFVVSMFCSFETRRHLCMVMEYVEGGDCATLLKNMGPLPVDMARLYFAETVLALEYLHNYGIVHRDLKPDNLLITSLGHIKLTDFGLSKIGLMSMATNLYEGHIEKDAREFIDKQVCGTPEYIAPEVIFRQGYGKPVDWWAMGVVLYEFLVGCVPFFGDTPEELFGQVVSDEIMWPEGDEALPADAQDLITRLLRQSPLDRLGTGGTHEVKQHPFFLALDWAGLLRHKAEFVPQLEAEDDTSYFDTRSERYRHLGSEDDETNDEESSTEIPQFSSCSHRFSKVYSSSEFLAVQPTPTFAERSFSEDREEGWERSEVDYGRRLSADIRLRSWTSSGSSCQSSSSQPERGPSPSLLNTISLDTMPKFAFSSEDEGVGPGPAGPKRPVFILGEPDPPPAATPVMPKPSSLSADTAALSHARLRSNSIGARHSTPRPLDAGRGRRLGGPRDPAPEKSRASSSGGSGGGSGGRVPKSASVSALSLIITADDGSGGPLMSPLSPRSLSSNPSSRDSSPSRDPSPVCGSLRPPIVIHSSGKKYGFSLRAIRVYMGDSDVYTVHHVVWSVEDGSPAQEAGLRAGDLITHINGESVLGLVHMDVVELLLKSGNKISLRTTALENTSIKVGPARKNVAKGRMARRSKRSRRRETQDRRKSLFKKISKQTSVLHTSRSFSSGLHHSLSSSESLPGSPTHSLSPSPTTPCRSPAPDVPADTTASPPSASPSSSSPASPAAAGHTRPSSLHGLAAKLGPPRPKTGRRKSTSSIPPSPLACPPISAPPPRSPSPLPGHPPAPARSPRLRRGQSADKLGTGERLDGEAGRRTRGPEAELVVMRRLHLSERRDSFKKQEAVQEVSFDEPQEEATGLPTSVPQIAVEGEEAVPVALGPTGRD
T10 sequence (Q96GX5 whole entry): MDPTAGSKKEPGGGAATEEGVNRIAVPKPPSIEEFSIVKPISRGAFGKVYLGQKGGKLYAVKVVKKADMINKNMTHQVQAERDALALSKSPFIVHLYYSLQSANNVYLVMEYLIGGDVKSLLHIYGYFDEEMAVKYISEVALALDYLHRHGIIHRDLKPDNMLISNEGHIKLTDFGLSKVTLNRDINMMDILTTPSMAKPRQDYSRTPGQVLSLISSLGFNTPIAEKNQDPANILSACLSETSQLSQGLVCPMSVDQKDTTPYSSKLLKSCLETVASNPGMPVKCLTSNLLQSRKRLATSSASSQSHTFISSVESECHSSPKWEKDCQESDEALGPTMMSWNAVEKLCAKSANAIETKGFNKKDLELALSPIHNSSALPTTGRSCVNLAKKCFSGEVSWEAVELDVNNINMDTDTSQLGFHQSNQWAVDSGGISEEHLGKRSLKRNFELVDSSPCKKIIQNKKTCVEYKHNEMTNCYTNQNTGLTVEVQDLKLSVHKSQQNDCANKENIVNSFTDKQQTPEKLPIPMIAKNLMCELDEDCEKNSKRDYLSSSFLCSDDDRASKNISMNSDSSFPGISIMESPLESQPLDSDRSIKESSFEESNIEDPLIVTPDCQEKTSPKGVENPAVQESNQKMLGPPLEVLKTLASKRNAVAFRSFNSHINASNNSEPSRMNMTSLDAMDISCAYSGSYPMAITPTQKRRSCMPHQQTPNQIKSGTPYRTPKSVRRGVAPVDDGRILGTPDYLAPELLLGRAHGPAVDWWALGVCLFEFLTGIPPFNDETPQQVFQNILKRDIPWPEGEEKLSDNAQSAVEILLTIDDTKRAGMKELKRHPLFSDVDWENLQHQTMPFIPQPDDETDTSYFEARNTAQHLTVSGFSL
T9 sequence (Q96J92 whole entry): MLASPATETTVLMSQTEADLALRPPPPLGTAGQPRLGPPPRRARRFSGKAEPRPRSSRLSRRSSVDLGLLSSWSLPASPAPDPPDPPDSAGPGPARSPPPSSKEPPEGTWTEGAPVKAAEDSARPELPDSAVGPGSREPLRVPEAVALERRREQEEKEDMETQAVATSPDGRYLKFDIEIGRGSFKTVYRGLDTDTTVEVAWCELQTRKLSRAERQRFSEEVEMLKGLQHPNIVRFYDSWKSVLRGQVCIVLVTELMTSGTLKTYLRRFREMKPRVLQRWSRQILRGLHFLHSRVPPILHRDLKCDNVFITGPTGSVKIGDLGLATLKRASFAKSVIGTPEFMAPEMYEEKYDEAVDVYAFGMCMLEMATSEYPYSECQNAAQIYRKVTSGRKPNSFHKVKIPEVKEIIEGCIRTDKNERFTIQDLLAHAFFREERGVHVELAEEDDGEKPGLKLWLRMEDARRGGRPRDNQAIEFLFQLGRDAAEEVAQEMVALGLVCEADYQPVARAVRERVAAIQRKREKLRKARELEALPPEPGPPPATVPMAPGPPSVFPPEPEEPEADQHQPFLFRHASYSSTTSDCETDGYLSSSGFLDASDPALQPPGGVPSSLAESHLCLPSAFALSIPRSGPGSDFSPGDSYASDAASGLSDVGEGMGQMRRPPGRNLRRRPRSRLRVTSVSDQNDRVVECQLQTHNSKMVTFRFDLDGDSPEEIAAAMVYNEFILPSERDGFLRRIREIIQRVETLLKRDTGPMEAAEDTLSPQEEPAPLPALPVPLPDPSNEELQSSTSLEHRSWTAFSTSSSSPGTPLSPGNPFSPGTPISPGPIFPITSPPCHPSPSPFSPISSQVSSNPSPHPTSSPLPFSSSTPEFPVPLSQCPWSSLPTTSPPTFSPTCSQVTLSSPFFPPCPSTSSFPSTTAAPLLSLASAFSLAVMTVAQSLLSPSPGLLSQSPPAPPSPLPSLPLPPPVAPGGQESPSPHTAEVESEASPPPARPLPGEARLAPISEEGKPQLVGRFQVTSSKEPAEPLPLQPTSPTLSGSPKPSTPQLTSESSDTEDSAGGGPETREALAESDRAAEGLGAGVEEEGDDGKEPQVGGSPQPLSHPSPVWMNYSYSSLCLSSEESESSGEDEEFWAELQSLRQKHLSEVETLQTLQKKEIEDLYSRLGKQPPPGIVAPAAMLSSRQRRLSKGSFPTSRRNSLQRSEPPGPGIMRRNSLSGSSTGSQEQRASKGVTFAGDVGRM
T2 sequence (P54760 16-987): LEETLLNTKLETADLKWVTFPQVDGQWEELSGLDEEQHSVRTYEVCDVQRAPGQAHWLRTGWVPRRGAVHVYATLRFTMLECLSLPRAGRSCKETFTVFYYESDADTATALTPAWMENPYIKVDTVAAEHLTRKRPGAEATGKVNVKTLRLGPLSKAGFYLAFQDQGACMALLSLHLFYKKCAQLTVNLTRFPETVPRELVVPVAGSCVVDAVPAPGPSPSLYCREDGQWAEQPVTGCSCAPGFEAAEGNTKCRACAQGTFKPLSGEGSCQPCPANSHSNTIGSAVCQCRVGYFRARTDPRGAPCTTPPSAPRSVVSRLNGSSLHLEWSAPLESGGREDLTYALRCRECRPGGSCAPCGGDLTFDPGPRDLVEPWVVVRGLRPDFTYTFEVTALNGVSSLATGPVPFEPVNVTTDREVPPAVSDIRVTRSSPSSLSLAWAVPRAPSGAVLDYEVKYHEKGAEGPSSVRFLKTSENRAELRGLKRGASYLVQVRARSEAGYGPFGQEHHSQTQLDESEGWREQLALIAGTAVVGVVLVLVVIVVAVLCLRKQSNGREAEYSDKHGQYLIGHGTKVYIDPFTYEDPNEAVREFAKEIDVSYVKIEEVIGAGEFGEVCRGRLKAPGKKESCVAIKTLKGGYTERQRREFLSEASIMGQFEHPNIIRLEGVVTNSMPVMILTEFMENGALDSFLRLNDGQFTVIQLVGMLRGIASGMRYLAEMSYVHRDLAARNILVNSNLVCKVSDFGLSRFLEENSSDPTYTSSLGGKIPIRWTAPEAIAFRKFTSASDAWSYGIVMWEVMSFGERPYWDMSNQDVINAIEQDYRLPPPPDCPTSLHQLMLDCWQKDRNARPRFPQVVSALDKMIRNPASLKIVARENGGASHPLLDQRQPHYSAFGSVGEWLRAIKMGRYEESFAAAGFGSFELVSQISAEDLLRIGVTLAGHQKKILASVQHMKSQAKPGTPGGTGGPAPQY

SMILES: CCOc1cc(C(=O)N2CCC(N3CCN(C)CC3)CC2)ccc1Nc1ncc2c(n1)N(C1CCCC1)c1ccccc1C(=O)N2C [Compound 26]
- % Inhibiton, CDK2 ([1]; proteome HEL): 7%
- % Inhibiton, CDK2 ([1]; proteome PC3): -6.7%
- % Inhibiton, EphB4 [2]: 17%
- % Inhibition PRPK ([3]; proteome HEL): 9.6%
- % Inhibition PRPK ([3]; proteome PC3): -5.6%
- % Inhibiton, IRE1 [4]: -19%
- % Inhibiton, AGK [5]: 15.3%
- % Inhibition RSKL1 domain1 [6]: -6.2%
- % Inhibition Wee1 [7]: 2.9%
- % Inhibiton, JAK2 domain2 [8]: 6.5%
- % Inhibition Wnk4 [9]: -2.1%
- % Inhibiton, MASTL [10]: 5.9%
- % Inhibiton, MAST3 ([11]; proteome HEL): -5.1%
- % Inhibiton, MAST3 ([11]; proteome PC3): -3.9%
- % Inhibition PKR ([12]; proteome HEL): -0.3%
- % Inhibition PKR ([12]; proteome PC3): -3.3%
- % Inhibiton, IRAK4 ([13]; proteome HEL): -2.3%
- % Inhibiton, IRAK4 ([13]; proteome PC3): 1.4%
- % Inhibition PI4KA,PI4KAP2 ([14]; proteome HEL): -4.3%
- % Inhibition PI4KA,PI4KAP2 ([14]; proteome PC3): -19.2%
- % Inhibition PKCa,PKCb ([14]; PKCa,PKCb, peptide DLk[…], proteome PC3, labeling site Lys2): -2.9%
- % Inhibition PKD1,PKD2 ([14]; PKD1,PKD2, peptide NIVHCDLk[…], proteome HEL, labeling site Lys2): 16.4%
- % Inhibition ROCK1,ROCK2 ([14]; ROCK1,ROCK2, peptide DVkPDNMLLDK, proteome PC3, labeling site Lys2): -4.8%
- % Inhibition RSK1,RSK2 domain1 ([14]; RSK1,RSK2 domain1, peptide DLk[…], proteome HEL, labeling site Lys2): 13.4%
- % Inhibition RSK1,RSK4 domain1 ([14]; RSK1,RSK4 domain1, peptide VLGQGSFGkVFLVR, proteome HEL, labeling site ATP Loop): 0.4%
- % Inhibition SRPK1,SRPK2 ([14]; SRPK1,SRPK2, peptide FVAMkVVK, proteome PC3, labeling site Lys1): -3.7%
- % Inhibition TAO1,TAO3 [14, 15]: -15.8%
- % Inhibition TAO1,TAO3 [14, 16]: 1.7%
- % Inhibition Wnk1,Wnk2,Wnk3 ([14]; Wnk1,Wnk2,Wnk3, peptide DLk[…], proteome HEL, labeling site Lys2): 1.8%
- % Inhibition Wnk1,Wnk2,Wnk4 ([14]; Wnk1,Wnk2,Wnk4, peptide IGDLGLATLkR, proteome PC3, labeling site Activation Loop): -6.2%
- % Inhibition ZC1/HGK,ZC2/TNIK,ZC3/MINK [14, 15]: -1.1%
- % Inhibition ZC1/HGK,ZC2/TNIK,ZC3/MINK [14, 16]: -12.1%
- % Inhibition p70S6K,p70S6Kb ([14]; p70S6K,p70S6Kb, peptide GGYGkVFQVR, proteome PC3, labeling site ATP Loop): -1%
- % Inhibiton, MAP3K2,MAP3K3 [14, 17]: -4.4%
- % Inhibiton, IKKe,TBK1 [14, 17]: -55%
- % Inhibiton, NEK6,NEK7 ([14]; proteome HEL, peptide DIk[…], labeling site Lys2): 6.4%
- % Inhibiton, JNK1,JNK2,JNK3 [14, 17]: 14%
- % Inhibiton, AMPKa1,AMPKa2 [14, 18]: -22.8%
- % Inhibiton, MARK2,MARK3 [14, 18]: -16.8%
- % Inhibiton, MAST2,MAST4 [14, 18]: -23.7%
- % Inhibiton, p38d,p38g [14, 18]: -11.7%
- % Inhibiton, MAP2K1,MAP2K2 [14, 17]: 17.5%
- % Inhibiton, MYO3A,MYO3B ([14]; proteome HEL, peptide DVk[…], labeling site Lys2): 11.5%
- % Inhibiton, BMX,BTK ([14]; proteome HEL, peptide GQYDVAIkMIK, labeling site Lys1): -22.5%
- % Inhibiton, MAP3K5,MAP3K6,MAP3K7 ([14]; proteome HEL, peptide IAIkEIPERDSR, labeling site Lys1): 2%
- % Inhibiton, KSR1,KSR2 ([14]; proteome HEL, peptide SkNVFYDNGK, labeling site Protein Kinase Domain): 12.3%
- % Inhibiton, AMPKa1,AMPKa2 ([14]; proteome HEL, peptide VAVkILNR, labeling site Lys1): 6%
- % Inhibiton, MSK1,MSK2 domain1 ([14]; proteome HEL, peptide VLGTGAYGkVFLVR, labeling site ATP Loop): 7.4%
- % Inhibiton, ABL,ARG ([14]; proteome HEL, peptide […]kFPIK, labeling site Activation Loop): -6.4%
- % Inhibiton, MAP3K2,MAP3K3 [14, 19]: 5.5%
- % Inhibiton, IKKe,TBK1 [14, 19]: -4.6%
- % Inhibiton, MST1,MST2 [14, 20]: -5.4%
- % Inhibiton, MST4,YSK1 [14, 20]: 0.5%
- % Inhibiton, NEK6,NEK7 [14, 20]: -4.6%
- % Inhibiton, CaMK2a,CaMK2b,CaMK2d,CaMK2g ([14]; proteome PC3, peptide DLkPENLLLASK, labeling site Lys2): -3.7%
- % Inhibiton, JNK1,JNK2,JNK3 [14, 19]: 12.2%
- % Inhibiton, AMPKa1,AMPKa2 [14, 21]: 12.1%
- % Inhibiton, CDK11,CDK8 [14, 21]: 7.9%
- % Inhibiton, MARK2,MARK3 [14, 21]: 3.7%
- % Inhibiton, p38d,p38g [14, 21]: 8.3%
- % Inhibiton, MAP2K1,MAP2K2 [14, 19]: 7.9%
- % Inhibiton, CK1d,CK1e ([14]; proteome PC3, peptide DVk[…], labeling site Lys2): 13%
- % Inhibiton, MARK3,MARK4 ([14]; proteome PC3, peptide EVAIkIIDK, labeling site Lys1): 0.6%
- % Inhibiton, FYN,SRC,YES ([14]; proteome PC3, peptide QGAk[…], labeling site Activation Loop): 5.5%
- % Inhibiton, AMPKa1,AMPKa2 ([14]; proteome PC3, peptide VAVkILNR, labeling site Lys1): 6.9%
